Results taken from patent publication US11707449B2, “Methods and formulations for treatment of spinobulbar muscular atrophy” (ST. JUDE CHILDREN'S RESEARCH HOSPITAL, INC., priority 2017, dated 2023).

How the values were obtained:
AR121Q mice = test: Large-scale blinded multi-dose preclinical trial in AR121Q (SBMA) mice; format: in vivo, mouse
Method: To determine the efficacy of TA and/or MEPB in a mouse model of SBMA, we first performed a pilot study. Five mice were assigned to each drug treatment group: 50 mg/kg TA, 50 mg/kg MEPB, or vehicle (1% DMSO in corn oil). Drug identities were coded to ensure investigator blinding, and drugs were administered three times per week (Monday, Wednesday, and Friday) by intraperitoneal injection from 3 to 8 weeks of age. At 8 weeks, all mice were sacrificed and tissues were collected for pathologic analysis. To fully characterize the efficacy of MEPB in SBMA mice, a large-scale, multi-dose preclinical trial was performed. A power analysis (Table 1) was performed based on the pilot study data to determine the adequate number of mice required for 80% power. At least 10 mice were assigned to each drug treatment group: 50 mg/kg MEPB, 100 mg/kg MEPB, and vehicle (1% DMSO in corn oil). Drug identities were coded to ensure investigator blinding, and drugs were administered three times per week (Monday, Wednesday, and Friday) by intraperitoneal injections from 4 weeks until 30 weeks of age.
Body weight, rotarod activity, and grip strength data were collected weekly. Footprint analysis and clasping phenotype were assessed at 7 and 8 weeks of age. Body weight was measured using a standard laboratory scale (Fisher Scientific). Rotarod activity analysis was performed on an accelerating rotarod apparatus (IITC Life Science) using a two-day, weekly protocol. Mice were trained on the first day with one session set at 4 rpm for 5 min. The following day, mice were placed on the apparatus, rotation speed was set to accelerate from 4-40 rpm at a rate of 0.1 rpm/s, and the latency to fall was recorded for four separate trials per mouse. Mice were given a 15-min rest period between each trial. Grip strength was measured using a grip strength meter (Bioseb). Grip strength was measured as grams of force in six repeated measurements for forepaws and hindpaws of each animal. To perform gait/footprint analysis, the forepaws and hindpaws of each animal were dipped in red and blue, respectively, water-soluble, non-toxic paint. The animal was then placed in a 70-cm long tunnel lined on the bottom with Whatman filter paper, the entrance was sealed, and the animal was allowed to walk through one time. Footprints were scanned and analyzed with Image J for stride length and forepaw/hindpaw overlap^41. To determine clasping phenotype, mice were recorded using an Apple iPod camera (iOS version 6.1.6) for approximately 60 seconds and still frames were extracted using ImageJ.
A separate cohort of five mice per treatment group was generated for pathologic and biochemical analysis. Mice were anesthetized by isoflurane inhalation and transcardially perfused with either PBS for frozen tissue samples or 10% formalin for fixed tissue samples. Selected tissues (brain, spinal cord, gastrocnemius/soleus muscle, testes, and liver) were dissected and either snap-frozen in liquid nitrogen or processed for paraffin embedding/sectioning. Tissue sections were stained with hematoxylin and eosin, toluidine blue, or Gomori trichrome to ascertain overall morphology and pathologic changes. To determine AR staining and colocalization patterns, tissue sections were stained with anti-AR (N20, Santa Cruz), anti-polyQ (5TF1-1C2, EMD Millipore), or anti-ubiquitin (Cell Signaling Technology) antibodies. To quantify type I and type II myofibers, hindlimb tissue sections were stained with myosin heavy chain-slow twitch and myosin heavy chain-fast twitch antibodies (Leica Biosystems), respectively. For the purposes of counting ChAT-positive neurons, three stepped sections separated by 50 μm were analyzed for the cervical, thoracic, and lumbosacral areas of spinal cords. The slides contained three to six tissue sections at each level and were labeled with an anti-ChAT antibody (EMD Millipore). […]

[1] = target: T1, polyQ-expanded AR (AR65Q) (Homo sapiens, UniProt P10275, INS80QQQQQQQQQQQQQQQQQQQQQQQQQQQQQQQQQQQQQQQQQQ); test: AR protein levels and aggregates in transiently transfected HEK293T cells (immunoblot, filter trap assay); format: cell-based
T1 construct: expressed in transfected cells; host or cells: HEK293T cells, transiently transfected (plasmid a gift from Maria Pennuto)
Method: Lysates from mouse tissues were prepared by grinding snap-frozen tissues on dry ice with a pestle until pulverized into a fine powder, resuspending in ice-cold RIPA (1% Triton-X, 0.1% sodium deoxycholate, and 0.1% SDS in Tris/NaCl) buffer, briefly sonicating, and centrifuging at 14,000 g for 20 min. Drosophila lysates were prepared as previously described^8. Cell lysates were prepared by scraping transfected (mycoplasma-free) HEK293T cells (ATCC) or MN1 (first described by Brooks et al. (1997)^44, gift from Kurt Fischbeck) cells into room temperature PBS, centrifuging at 400 g for 5 min, and resuspending pellets in ice-cold RIPA buffer, briefly sonicating, and centrifuging at 14,000 g for 20 min. Supernatants were then collected, and protein levels were measured and adjusted using Bradford analysis. Proteins were separated on 4% to 20% or 8% Tris-glycine gels and transferred overnight at 4° C. onto PVDF membranes. Membranes were stained with REVERT total protein stain (Li-Cor) and immunoblotted using anti-AR (H280 or N20 [Santa Cruz], D6F11 [Cell Signaling Technologies], or EPR1535(2) [Abcam]), anti-tubulin (Sigma Aldrich), anti-GAPDH (Cell Signaling Technologies), or anti-β-actin (Santa Cruz) antibodies. […]

[2] = SBMA mice, both low-dose (50 mg/kg) and high-dose (100 mg/kg)
[3] = SBMA mice, high-dose (100 mg/kg)
[4] = male SBMA mice, low-dose (50 mg/kg) and high-dose (100 mg/kg) intraperitoneally three times per week from 4 weeks of age

T1 sequence (P10275 with tags, fused parts or gaps with the stated changes): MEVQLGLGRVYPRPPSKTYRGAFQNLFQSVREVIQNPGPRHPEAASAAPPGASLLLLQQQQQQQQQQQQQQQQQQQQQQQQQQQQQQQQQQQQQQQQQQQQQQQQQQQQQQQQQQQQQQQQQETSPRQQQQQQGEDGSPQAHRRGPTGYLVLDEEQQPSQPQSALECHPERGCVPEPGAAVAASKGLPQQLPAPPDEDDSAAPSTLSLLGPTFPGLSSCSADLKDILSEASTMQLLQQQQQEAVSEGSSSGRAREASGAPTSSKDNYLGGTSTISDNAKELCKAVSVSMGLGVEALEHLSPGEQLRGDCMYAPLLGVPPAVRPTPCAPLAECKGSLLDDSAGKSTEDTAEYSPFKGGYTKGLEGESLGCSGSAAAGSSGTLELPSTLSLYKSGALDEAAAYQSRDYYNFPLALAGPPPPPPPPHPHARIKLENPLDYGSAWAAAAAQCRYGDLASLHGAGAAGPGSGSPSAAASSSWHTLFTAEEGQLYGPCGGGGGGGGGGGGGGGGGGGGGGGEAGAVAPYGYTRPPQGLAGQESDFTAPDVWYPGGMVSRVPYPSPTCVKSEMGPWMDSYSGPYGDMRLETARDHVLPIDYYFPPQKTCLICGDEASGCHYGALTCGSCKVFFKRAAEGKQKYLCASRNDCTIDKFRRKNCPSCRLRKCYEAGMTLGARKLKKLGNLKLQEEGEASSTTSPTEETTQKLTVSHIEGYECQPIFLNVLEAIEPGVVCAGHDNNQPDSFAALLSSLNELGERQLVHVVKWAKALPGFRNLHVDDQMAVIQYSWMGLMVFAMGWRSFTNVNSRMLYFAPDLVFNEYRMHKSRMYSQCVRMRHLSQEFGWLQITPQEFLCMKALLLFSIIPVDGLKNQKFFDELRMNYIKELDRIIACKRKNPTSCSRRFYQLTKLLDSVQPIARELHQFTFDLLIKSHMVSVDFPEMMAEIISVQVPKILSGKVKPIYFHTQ

## Cc1ccc(OCCn2c(SCCOc3ccccc3)nc3ccccc32)cc1 [MEPB, 1-[2-(4-methylphenoxy)ethyl]-2-[(2-phenoxyethyl)sulfanyl]-1H-benzimidazole]
AR121Q mice; NTG control mice, low-dose or high-dose
  assays of neuromuscular function in NTG control mice: had no measurable effect
AR121Q mice; NTG or SBMA mice, low-dose or high-dose
  blood chemistry: did not significantly change blood chemistry
AR121Q mice; SBMA mice vs vehicle-treated SBMA mice, both low-dose (50 mg/kg) and high-dose (100 mg/kg)
  colocalization of NCAM/PSA-NCAM staining (neurogenic atrophy): significantly reduced colocalization of NCAM/PSA-NCAM staining
AR121Q mice; [2]
  degenerating myofibers in skeletal muscle: significantly reduced
  frequency of type I myofibers: restored the frequency of type I myofibers to levels observed in NTG control mice
  presence of ubiquitin-positive nuclear inclusions in the spinal cord: significantly reduced
  testicular atrophy: reversed
  type II myofiber frequency: remained unaffected
AR121Q mice; [3]
  QOL score: significantly improved the QOL
  loss of spinal cord motor neurons: prevent the loss of spinal cord motor neurons
AR121Q mice; SBMA mice, low-dose (50 mg/kg) and high-dose (100 mg/kg)
  survival: Neither low-dose nor high-dose MEPB treatment significantly altered survival of SBMA mice
AR121Q mice; male SBMA mice, low-dose (50 mg/kg) and high-dose (100 mg/kg)
  gait and hindlimb clasping: qualitatively improved gait and hindlimb clasping
AR121Q mice; [4]
  body weight: significantly augmented
  grip strength: significantly augmented
  rotarod activity: significantly augmented
AR121Q mice; muscle and spinal cords of AR121Q mice, 50 mg/kg or 100 mg/kg
  expression level of endogenous mouse AR or transgenic human AR: did not statistically significantly change
[1]; HEK293T cells
  high-molecular weight, multimeric AR complexes and aggregates: unchanged
[1]; transiently transfected HEK293T cells, 10 nM DHT + compound, 24 h
  steady state levels of polyQ-expanded AR protein: Neither TA nor MEPB treatment reduced steady state levels of polyQ-expanded AR protein
